According to patent US10093630B2, “Pyrazole compounds and methods of making and using same” (ABIDE THERAPEUTICS, INC., priority 2014, dated 2018):
Where two headings read alike, the source gives them in different places.

Tests used:
Experiment in all cases: In vitro competitive activity-based protein profiling (gel-based, FP-Rh or HT-01 probe)
Format in all cases: biochemical
PLA2G7 = target: T1, PLA2G7 (Mus musculus, UniProt Q60963); settings: for inhibition at 1 µM: 1 μM inhibitor, read-out: % Inhibition at 1 μM, D = PLA2G7; for inhibition at 10 µM: 10 μM inhibitor, read-out: % Inhibition at 10 μM, D = PLA2G7; for IC50: mouse brain membrane fraction or cell lysates, 30 min preincubation at 37° C.
T1 construct: Proteomes (mouse brain membrane fraction or cell lysates); from tissue; host or cells: mouse brain membrane fraction (or cell lysates, not specified)
T1 sequence (Q60963 22-440): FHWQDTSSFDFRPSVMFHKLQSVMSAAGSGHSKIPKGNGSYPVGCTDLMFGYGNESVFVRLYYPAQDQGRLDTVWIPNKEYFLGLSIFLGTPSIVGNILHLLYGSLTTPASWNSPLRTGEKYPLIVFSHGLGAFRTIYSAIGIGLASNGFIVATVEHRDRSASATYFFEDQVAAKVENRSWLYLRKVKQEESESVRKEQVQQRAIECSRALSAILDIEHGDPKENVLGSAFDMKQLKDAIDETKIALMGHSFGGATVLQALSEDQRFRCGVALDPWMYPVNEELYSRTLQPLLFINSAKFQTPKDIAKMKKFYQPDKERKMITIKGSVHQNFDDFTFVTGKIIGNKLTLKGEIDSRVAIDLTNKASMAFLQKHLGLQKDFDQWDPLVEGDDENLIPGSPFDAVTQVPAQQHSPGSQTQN
Outline: (§1)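 Competitive labelling format in mouse brain membrane fractions or lysates at 1.0 mg/mL total protein: compounds preincubate 30 min at 37° C, activity probe FP-Rh or HT-01 then reacts 30 min at 37° C. Gel band fluorescence gives target activity.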

ABHD6 = target: T2, ABHD6 (Mus musculus, UniProt Q8R2Y0); settings: for inhibition at 1 µM: 1 μM inhibitor, read-out: % Inhibition at 1 μM, C = ABHD6; for inhibition at 10 µM: 10 μM inhibitor, read-out: % Inhibition at 10 μM, C = ABHD6; for IC50: mouse brain membrane fraction or cell lysates, 30 min preincubation at 37° C., read-out: Mouse (IC50 value, nM) ABHD6
T2 construct: Proteomes (mouse brain membrane fraction or cell lysates); from tissue; host or cells: mouse brain membrane fraction (or cell lysates, not specified)
T2 sequence (Q8R2Y0 1-336): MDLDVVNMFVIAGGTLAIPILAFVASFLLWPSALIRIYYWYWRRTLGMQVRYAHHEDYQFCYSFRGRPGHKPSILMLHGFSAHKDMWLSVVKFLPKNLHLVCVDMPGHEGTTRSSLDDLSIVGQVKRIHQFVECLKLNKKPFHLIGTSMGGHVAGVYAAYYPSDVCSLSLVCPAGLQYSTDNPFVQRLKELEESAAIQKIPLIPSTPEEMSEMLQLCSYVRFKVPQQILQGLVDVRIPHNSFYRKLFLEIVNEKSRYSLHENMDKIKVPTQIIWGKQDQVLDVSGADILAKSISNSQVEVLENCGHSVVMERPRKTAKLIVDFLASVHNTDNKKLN
Outline: as §1

FAAH = target: T3, FAAH (Mus musculus, UniProt O08914); settings: for inhibition at 1 µM: 1 μM inhibitor, read-out: % Inhibition at 1 μM, B = FAAH; for inhibition at 10 µM: 10 μM inhibitor, read-out: % Inhibition at 10 μM, B = FAAH; for IC50: mouse brain membrane fraction or cell lysates, 30 min preincubation at 37° C., read-out: Mouse (IC50 value, nM) FAAH
T3 construct: Proteomes (mouse brain membrane fraction or cell lysates); from tissue; host or cells: mouse brain membrane fraction (or cell lysates, not specified)
T3 sequence (O08914 1-579): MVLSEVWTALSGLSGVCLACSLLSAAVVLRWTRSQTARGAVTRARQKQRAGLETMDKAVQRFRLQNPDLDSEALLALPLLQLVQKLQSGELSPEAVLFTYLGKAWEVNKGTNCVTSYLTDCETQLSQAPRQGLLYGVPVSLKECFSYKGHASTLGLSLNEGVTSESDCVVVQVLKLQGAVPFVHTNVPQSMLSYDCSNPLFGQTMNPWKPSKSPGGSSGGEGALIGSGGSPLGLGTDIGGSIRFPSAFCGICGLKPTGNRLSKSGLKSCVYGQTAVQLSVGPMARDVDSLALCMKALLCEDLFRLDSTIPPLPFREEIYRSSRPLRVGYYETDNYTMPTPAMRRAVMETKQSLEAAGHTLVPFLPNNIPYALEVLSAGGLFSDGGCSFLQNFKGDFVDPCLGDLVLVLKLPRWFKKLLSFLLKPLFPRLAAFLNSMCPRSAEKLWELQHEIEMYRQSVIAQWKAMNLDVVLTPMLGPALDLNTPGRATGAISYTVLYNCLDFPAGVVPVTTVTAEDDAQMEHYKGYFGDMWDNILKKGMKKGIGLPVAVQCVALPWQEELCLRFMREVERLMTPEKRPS
Outline: as §1

MAGL = target: T4, MAGL (Mus musculus, UniProt O35678); settings: for inhibition at 1 µM: 1 μM inhibitor; for inhibition at 10 µM: 10 μM inhibitor; for IC50: mouse brain membrane fraction or cell lysates, 30 min preincubation at 37° C., read-out: Mouse (IC50 value, nM) MAGL
T4 construct: Proteomes (mouse brain membrane fraction or cell lysates); from tissue; host or cells: mouse brain membrane fraction (or cell lysates, not specified)
T4 sequence (O35678 1-303): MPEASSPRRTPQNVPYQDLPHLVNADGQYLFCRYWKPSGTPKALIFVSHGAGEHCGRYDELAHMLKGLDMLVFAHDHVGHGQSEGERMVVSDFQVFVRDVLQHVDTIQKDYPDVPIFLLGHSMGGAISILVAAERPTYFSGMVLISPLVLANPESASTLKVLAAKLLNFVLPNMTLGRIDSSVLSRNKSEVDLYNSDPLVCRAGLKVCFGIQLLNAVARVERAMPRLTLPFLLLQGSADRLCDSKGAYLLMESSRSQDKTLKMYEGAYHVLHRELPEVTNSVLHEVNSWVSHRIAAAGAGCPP
Outline: as §1

Row | inhibition at 1 µM (PLA2G7) [%] | inhibition at 10 µM (PLA2G7) [%] | IC50 (PLA2G7) [nM] | inhibition at 1 µM (ABHD6) [%] | inhibition at 10 µM (ABHD6) [%] | IC50 (ABHD6) [nM] | inhibition at 1 µM (FAAH) [%] | inhibition at 10 µM (FAAH) [%] | IC50 (FAAH) [nM] | inhibition at 1 µM (MAGL) [%] | inhibition at 10 µM (MAGL) [%] | IC50 (MAGL) [nM] | inhibition at 1 µM (PLA2G7; gel-based competitive ABPP) [%] | inhibition at 1 µM (ABHD6; gel-based competitive ABPP) [%] | inhibition at 1 µM (FAAH; gel-based competitive ABPP) [%] | inhibition at 1 µM (MAGL; gel-based competitive ABPP) [%] | inhibition at 10 µM (PLA2G7; gel-based competitive ABPP) [%] | inhibition at 10 µM (ABHD6; gel-based competitive ABPP) [%] | inhibition at 10 µM (FAAH; gel-based competitive ABPP) [%] | inhibition at 10 µM (MAGL; gel-based competitive ABPP) [%] | SMILES
1 | > 75 | > 75 | < 100 | > 75 | > 75 | < 100 | > 75 | > 75 | < 100 | > 75 | > 75 | < 100 | – | – | – | – | – | – | – | – | Cc1cc(-c2ccccc2)ccc1CN1CCN(C(=O)n2cc(C#N)cn2)CC1 [Example 138, 1-(4-((3-methylbiphenyl-4-yl)methyl)piperazine-1-carbonyl)-1H-pyrazole-4-carbonitrile]
2 | – | – | – | – | – | – | – | – | – | – | – | – | < 25 | < 25 | < 25 | < 25 | – | – | – | – | Cc1cnn(C(=O)NCc2ccc(OCc3ccccc3)cc2)c1 [Example 293, N-(4-(Benzyloxy)benzyl)-4-methyl-1H-pyrazole-1-carboxamide]
3 | > 75 | > 75 | – | > 75 | > 75 | – | > 75 | > 75 | – | > 75 | > 75 | – | – | – | – | – | – | – | – | – | O=C(N1CCN(Cc2ccc3ccccc3c2)CC1)n1cc(I)cn1 [Example 14, (4-Iodo-1H-pyrazol-1-yl)(4-(naphthalen-2-ylmethyl)piperazin-1-yl)methanone]
4 | > 75 | > 75 | – | > 75 | > 75 | 100 to 1000 | > 75 | > 75 | < 100 | > 75 | > 75 | 100 to 1000 | – | – | – | – | – | – | – | – | Cc1cc(-c2ccccc2)ccc1CN1CCN(C(=O)n2cc(C(=O)N3CCCCC3)cn2)CC1 [Example 76, (4-((3-Methyl-[1,1′-biphenyl]-4-yl)methyl)piperazin-1-yl)(4-(piperidine-1-carbonyl)-1H-pyrazol-1-yl)methanone]
5 | < 25 | > 75 | > 1000 | > 75 | > 75 | > 1000 | > 75 | > 75 | 100 to 1000 | > 75 | > 75 | 100 to 1000 | – | – | – | – | – | – | – | – | N#Cc1cnn(C(=O)N2CCCN(C(=O)c3ccccc3)CC2)c1 [Example 180, 1-(4-Benzoyl-1,4-diazepane-1-carbonyl)-1H-pyrazole-4-carbonitrile]
6 | < 25 | < 25 | – | < 25 | > 75 | > 1000 | > 75 | > 75 | 100 to 1000 | 25 to 75 | > 75 | > 1000 | – | – | – | – | – | – | – | – | CCN(Cc1cccc(C)c1)C(=O)n1cc(Cl)cn1 [Example 135, 4-Chloro-N-ethyl-N-(3-methylbenzyl)-1H-pyrazole-1-carboxamide]
7 | < 25 | < 25 | – | < 25 | > 75 | – | < 25 | > 75 | – | < 25 | > 75 | – | – | – | – | – | – | – | – | – | CCN(Cc1ccccc1OC)C(=O)n1cc(Cl)cn1 [Example 127, 4-Chloro-N-ethyl-N-(2-methoxybenzyl)-1H-pyrazole-1-carboxamide]
8 | < 25 | < 25 | – | < 25 | > 75 | – | > 75 | > 75 | – | 25 to 75 | > 75 | – | – | – | – | – | – | – | – | – | O=C(N1CCN(Cc2ccc(OCc3ccccc3)cc2)CC1)n1cccn1 [Example 19, (4-(4-(Benzyloxy)benzyl)piperazin-1-yl)(1H-pyrazol-1-yl)methanone]
9 | < 25 | – | – | < 25 | – | – | < 25 | – | – | < 25 | – | – | – | – | – | – | – | – | – | – | CCN(Cc1ccccc1C)C(=O)n1cc(Cl)cn1 [Example 132, 4-Chloro-N-(2-methylbenzyl)-N-ethyl-1H-pyrazole-1-carboxamide]
10 | – | – | – | – | – | – | – | – | – | – | – | – | < 25 | < 25 | 25 to 75 | < 25 | < 25 | < 25 | > 75 | < 25 | O=C(O)c1cnn(C(=O)N2CCN(Cc3ccc(Cl)cc3)CC2)c1 [Example 288, 1-(4-(4-Chlorobenzyl)piperazine-1-carbonyl)-1H-pyrazole-4-carboxylic acid]
11 | 25 to 75 | < 25 | – | > 75 | > 75 | – | > 75 | > 75 | – | > 75 | > 75 | – | – | – | – | – | – | – | – | – | CN(Cc1cccc(-c2ccncc2)c1)C(=O)n1cc(C#N)cn1 [Example 221, 4-Cyano-N-methyl-N-(3-(pyridin-4-yl)benzyl)-1H-pyrazole-1-carboxamide]
12 | – | – | – | – | – | – | – | – | – | – | – | – | > 75 | > 75 | > 75 | > 75 | – | – | – | – | O=C(N1CCN(Cc2ccccc2N2CCOCC2)CC1)n1cc(C(F)(F)F)cn1 [Example 281, (4-(2-Morpholinobenzyl)piperazin-1-yl)(4-(trifluoromethyl)-1H-pyrazol-1-yl)methanone]
13 | > 75 | > 75 | – | > 75 | > 75 | – | – | < 25 | – | – | < 25 | – | – | – | – | – | – | – | – | – | O=C(N1CCN(Cc2cncnc2)CC1)n1cc(-c2ccccc2)cn1 [Example 64, (4-Phenyl-1H-pyrazol-1-yl)(4-(pyrimidin-5-ylmethyl)piperazin-1-yl)methanone]
14 | < 25 | < 25 | – | < 25 | < 25 | – | < 25 | < 25 | – | < 25 | > 75 | – | – | – | – | – | – | – | – | – | Cc1cnn(C(=O)Nc2ccc3ccccc3c2)c1 [Example 41, 4-Methyl-N-(naphthalen-2-yl)-1H-pyrazole-1-carboxamide]
